Experimental data from ChEMBL document CHEMBL6087421, “Development of selective sigma-1 receptor ligands with antiallodynic activity: A focus on piperidine and piperazine scaffolds” (Eur J Med Chem, 2025).
Converted amounts (≈) assume the structure as drawn. The source made the active and inactive calls. The rule behind the calls is not given here.

Columns and labels:
[1] = tested on: Mus musculus; assay: Antiallodynic activity in capsaicin-induced wild-type female CD-1 mouse at 5 to 30 mg/kg, sc measured after 45 mins relative to control; assay type: functional; settings: dose 5-30 mg/kg, 0.75 h
[2] = tested on: Mus musculus; assay: Antihyperalgesic activity in PGE2-induced wild type female CD-1 mouse assessed as increase in response latency at 60 mg/kg, sc and measured by paw pressure test; assay type: functional, organism-based
[3] = tested on: Mus musculus; assay: Antiallodynic activity in capsaicin-induced wild-type female CD-1 mouse administered subcutaneously and measured after 45 min; assay type: functional, organism-based; settings: route sc
[4] = tested on: Mus musculus; assay: Antiallodynic activity in capsaicin-induced wild-type female CD-1 mouse assessed as maximum antiallodynic effect administered subcutaneously and co-administered with PRE-084 measured after 45 mins relative to control; assay type: functional; settings: route sc, 0.75 h
[5] = tested on: Mus musculus; assay: Antiallodynic activity in capsaicin-induced wild-type female CD-1 mouse assessed as maximum antiallodynic effect at 30 mg/kg, sc co-administered with PRE-084 measured after 45 mins; assay type: functional, organism-based
[6] = tested on: Mus musculus; assay: Antihyperalgesic activity in PGE2-induced S1R knockout mouse at 60 mg/kg administered subcutaneously; assay type: functional, organism-based; settings: route sc
[7] = biological target: T1, Sigma non-opioid intracellular receptor 1 (Homo sapiens, UniProt Q99720); assay: Displacement of [3H]-(+)-PTZ from S1R (unknown origin) assessed as inhibition constant by radioligand binding assay
T1 sequence (Q99720 whole entry): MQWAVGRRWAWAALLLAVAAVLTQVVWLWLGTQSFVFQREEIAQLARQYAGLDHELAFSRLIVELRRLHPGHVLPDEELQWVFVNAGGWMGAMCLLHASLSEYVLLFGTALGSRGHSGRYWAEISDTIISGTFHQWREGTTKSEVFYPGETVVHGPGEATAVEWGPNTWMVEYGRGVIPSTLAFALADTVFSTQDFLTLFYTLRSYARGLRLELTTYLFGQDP

[8] = tested on: Mus musculus; assay: Antiallodynic activity in capsaicin-induced wild-type female CD-1 mouse at 2 to 10 mg/kg, sc measured after 45 mins; assay type: functional, organism-based; settings: dose 2-10 mg/kg
[9] = tested on: Mus musculus; assay: Antihyperalgesic activity in PGE2-induced S1R knockout mouse at 10 mg/kg administered subcutaneously; assay type: functional, organism-based; settings: route sc
[10] = tested on: Mus musculus; assay: Antihyperalgesic activity in PGE2-induced wild type female CD-1 mouse assessed as increase in response latency at 10 mg/kg, sc and measured by paw pressure test; assay type: functional, organism-based
[11] = tested on: Mus musculus; assay: Antiallodynic activity in capsaicin-induced wild-type female CD-1 mouse assessed as maximum antiallodynic effect at 10 mg/kg, sc co-administered with PRE-084 measured after 45 mins; assay type: functional, organism-based
[12] = tested on: HMC3; assay: Cytotoxicity against human HMC3 cells assessed as reduction in cell viability at 0.1 to 30 uM incubated for 48 hrs by acridine orange staining based microplate reader analysis; assay type: toxicity; settings: hmc3, 48 h, dose 0.1-30 µM
[13] = tested on: Mus musculus; assay: Antiallodynic activity in capsaicin-induced wild-type female CD-1 mouse at 10 mg/kg, sc measured after 45 mins relative to control; assay type: functional; settings: 0.75 h
[14] = biological target: Sigma intracellular receptor 2 (Homo sapiens, UniProt Q5BJF2); assay: Binding affinity to S2R (unknown origin) assessed as inhibition constant
Sigma intracellular receptor 2, sequence (Q5BJF2 whole entry): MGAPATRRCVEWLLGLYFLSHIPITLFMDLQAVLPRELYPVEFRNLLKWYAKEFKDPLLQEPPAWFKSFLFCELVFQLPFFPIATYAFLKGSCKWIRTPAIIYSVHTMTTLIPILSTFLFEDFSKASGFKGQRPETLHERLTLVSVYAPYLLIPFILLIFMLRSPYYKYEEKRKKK

[15] = biological target: T1, Sigma non-opioid intracellular receptor 1
Description: Binding affinity to S1R (unknown origin) assessed as inhibition constant

[16] = Lipophilicity, log D of the compound at pH 7.4; settings: buffer
[17] = Lipophilicity, log P of the compound; assay type: physicochemical; settings: octanol/water
[18] = Lipophilicity, log D of the compound in Octanol/PBS buffer at pH 7.4 at 5 to 150 uM by UV-Vis spectrophotometric analysis; assay type: physicochemical; settings: dose 5-150 µM
[19] = Octanol/water partition coefficient, log P of the compound; assay type: physicochemical
[20] = tested on: Mus musculus; assay: Antiallodynic activity in capsaicin-induced wild-type female CD-1 mouse at 5 to 10 mg/kg, sc measured after 45 mins; assay type: functional, organism-based; settings: dose 5-10 mg/kg
[21] = biological target: Voltage-gated inwardly rectifying potassium channel KCNH2 (Homo sapiens, UniProt Q12809); assay: Inhibition of hERG in CHO-K1 cells; assay type: toxicity, cell-based
Voltage-gated inwardly rectifying potassium channel KCNH2, sequence (Q12809 whole entry): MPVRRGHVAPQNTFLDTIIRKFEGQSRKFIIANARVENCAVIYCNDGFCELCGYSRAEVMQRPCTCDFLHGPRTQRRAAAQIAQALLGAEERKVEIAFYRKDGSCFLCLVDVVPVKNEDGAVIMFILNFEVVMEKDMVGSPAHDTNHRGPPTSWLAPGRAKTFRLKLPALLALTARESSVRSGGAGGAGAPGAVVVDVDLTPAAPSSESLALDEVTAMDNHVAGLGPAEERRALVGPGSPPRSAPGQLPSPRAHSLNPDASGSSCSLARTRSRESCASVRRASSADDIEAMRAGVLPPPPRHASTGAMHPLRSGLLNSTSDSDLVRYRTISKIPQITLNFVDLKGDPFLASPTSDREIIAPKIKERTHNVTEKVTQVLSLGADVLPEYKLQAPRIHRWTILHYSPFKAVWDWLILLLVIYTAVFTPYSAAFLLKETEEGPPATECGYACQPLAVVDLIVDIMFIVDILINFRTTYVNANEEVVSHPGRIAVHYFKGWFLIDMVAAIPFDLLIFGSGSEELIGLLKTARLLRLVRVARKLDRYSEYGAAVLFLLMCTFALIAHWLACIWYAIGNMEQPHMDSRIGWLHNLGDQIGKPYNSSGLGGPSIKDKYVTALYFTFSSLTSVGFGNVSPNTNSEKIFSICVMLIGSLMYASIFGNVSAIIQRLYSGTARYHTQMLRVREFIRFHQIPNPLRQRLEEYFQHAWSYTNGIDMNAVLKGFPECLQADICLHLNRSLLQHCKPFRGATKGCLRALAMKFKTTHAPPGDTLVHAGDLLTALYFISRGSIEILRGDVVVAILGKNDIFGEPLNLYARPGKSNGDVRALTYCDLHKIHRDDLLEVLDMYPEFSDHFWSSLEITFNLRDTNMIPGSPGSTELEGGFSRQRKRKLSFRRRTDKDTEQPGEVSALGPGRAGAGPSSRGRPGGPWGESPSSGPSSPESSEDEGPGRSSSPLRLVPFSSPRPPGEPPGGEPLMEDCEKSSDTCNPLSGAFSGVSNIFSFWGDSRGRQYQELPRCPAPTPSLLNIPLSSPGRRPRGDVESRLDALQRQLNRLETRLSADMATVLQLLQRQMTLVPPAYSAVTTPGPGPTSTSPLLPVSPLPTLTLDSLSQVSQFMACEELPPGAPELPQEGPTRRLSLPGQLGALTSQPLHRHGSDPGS

[22] = Aqueous solubility of compound by UHPLC-PDA analysis; assay type: physicochemical; settings: buffer
[23] = Stability of compound in phosphate buffer at pH 7.4 assessed as half life; assay type: physicochemical
[24] = Cytotoxicity against human WS1 cells assessed as reduction in cell viability incubated for 48 hrs by acridine orange staining based microplate reader analysis; assay type: toxicity; settings: ws1, 48 h

Structure (SMILES): Cc1cc(OCCN2CCOCC2)nn1-c1ccc2ccccc2c1.Cl
- Activity [1]: 100%
- Activity [2]: Active
- Activity [3]: Dose-dependent-effect
- Activity [4]: 100%
- Activity [5]: Active
- Activity [6]: inactive

Structure (SMILES): CCN(CC)C(=O)C(c1ccccc1)N(C)C1CCN(CCc2ccccc2)CC1 (racemic)
- Ki [7]: 108 nM

Structure (SMILES): CCOC(=O)C(c1ccccc1)N(C)C1CCN(CCc2ccccc2)CC1 (racemic)
- Activity [3]: Dose-dependent-effect
- Ki [7]: 9.9 nM
- Activity [8]: Active
- Activity [9]: inactive
- Activity [10]: Active
- Activity [11]: Active
- Activity [12]: Non-toxic
- Activity [13]: 100%

Structure (SMILES): COc1ccc(CCN2CCN(CCCc3ccccc3)CC2)cc1OC [[11C]SA4503]
- Ki [14]: 90 nM

Structure (SMILES): CN1CCN(CCc2ccc(Cl)c(Cl)c2)CC1
- Ki [14]: 6.5 nM
- Ki [7]: 14 nM
- Ki [15]: 14 nM
- Activity [12]: Non-toxic

Structure (SMILES): O=C(CCCN1CCC(O)(c2ccc(Cl)cc2)CC1)c1ccc(F)cc1 [HALOPERIDOL]
- logD [16]: 3.99
- logP [17]: 4.03

Structure (SMILES): CC(C)=CCN1CC[C@@]2(C)c3cc(O)ccc3C[C@@H]1[C@@H]2C
- Activity [12]: Non-toxic

Structure (SMILES): COc1cc2c(cc1OC)C(=O)C(CC1CCN(Cc3ccccc3)CC1)C2 (configuration not stated) [DONEPEZIL]
- Ki [15]: 15 nM

Structure (SMILES): CCOC(=O)C(c1ccccc1)N(C)C1CCN(Cc2ccccc2)CC1 (racemic)
- logD at up to 150 µM [18]: 1.72
- Activity [3]: Dose-dependent-effect
- logP [19]: 1.79
- Activity [20]: Active
- IC50 [21]: 1600 nM
- Activity [9]: inactive
- Activity [10]: Active
- Activity [11]: Active
- solubility [22]: 1870 µg/mL (≈ 5.1 mM)
- half-life [23]: 1.59 h
- Activity [12]: Non-toxic
- Activity [24]: Non-toxic
- Activity [13]: 100%
